We go through one compound from patent US9254261B2, “Stable quick dissolving dosage form comprising amoxicillin and clavulanic acid” (Sandoz AG, priority 2014, dated 2016).

The data set can be described thus: Stability of potassium clavulanate alone and in binary mixtures with excipients, stressed storage 7 days at 60° C. Type of data set: physicochemical. The conditions noted are these: after storage 7 days at 60° C.; control sample, no excipient. The protocol:
In particular, the effect of different excipients and different mixture preparation conditions on the stability of the active ingredients was analyzed. […] In addition, two sets of compatibility studies with various excipients were conducted to investigate the influence of excipients on the stability of clavulanic acid and amoxicillin in the final dosage form. In the first study, a total of eight binary (i.e. two component) mixtures were prepared, each combining: […] (a) silicified microcrystalline cellulose, (b) low moisture silicified microcrystalline cellulose, having a moisture content of less than about 3.0%, (c) crospovidone, or (d) mannitol. […] After storage at a temperature of about 60° C. for about 7 days, each of the mixtures was then assayed to determine the amount of active ingredient remaining. Similarly, in the second study, a total of eight binary mixtures were prepared, each combining: […] (a) silicified microcrystalline cellulose, (b) low moisture silicified microcrystalline cellulose, (c) crospovidone, or (d) colloidal silicon dioxide. […] Further, each of the binary mixtures in the second study was prepared in a reduced moisture environment at a normal relative humidity (RH) of less than 30%. After storage at a temperature of about 60° C. for about 7 days, each of the mixtures was then assayed to determine the amount of active ingredient remaining.

For `O=C(O)[C@H]1/C(=C/CO)O[C@@H]2CC(=O)N21` [Clavulanic acid (CA), potassium clavulanate], the “Assay of clavulanic acid (%)” value came out at 94%.
